Drawing on the NIST ThermoML archive (doi:10.1016/j.jct.2014.09.005), this text covers refractive index, viscosity and mass density for three compounds.

Data set [1] in a line: refractive index (Na D-line) (dimensionless). The note with it: 101.33 kPa, Liquid, Standard Abbe refractometry.
For data set [2] the following is noted: 101.33 kPa, Liquid; for viscosity: Capillary tube (Ostwald / Ubbelohde) method; for mass density: Vibrating tube method.

SMILES strings stand for the structures. ± gives the expanded uncertainty stated by the source.

With `NC1CCCCC1` [cyclohexylamine], the refractive index is 1.45936 ± 0.00037 in data set [1] (293.15 K), 1.45694 ± 0.00037 in data set [1] (298.15 K) and 1.45427 ± 0.00037 in data set [1] (303.15 K). Further, the viscosity stood at 2.142 ± 0.046 mPa·s in data set [2] (293.15 K), 1.909 ± 0.041 mPa·s in data set [2] (298.15 K) and 1.699 ± 0.036 mPa·s in data set [2] (303.15 K). For the same compound, the mass density in data set [2] (293.15 K) is recorded as 867.2 ± 0.24 kg/m3; in data set [2] (298.15 K) it was 862.69 ± 0.24 kg/m3; in data set [2] (303.15 K), 858.12 ± 0.24 kg/m3.
With `CCCCCCCCCCO` [decan-1-ol], the refractive index worked out at 1.43728 ± 0.00037 in data set [1] (293.15 K), 1.43531 ± 0.00037 in data set [1] (298.15 K) and 1.43345 ± 0.00037 in data set [1] (303.15 K). In addition, the viscosity in data set [2] (293.15 K) is given as 14.52 ± 0.3 mPa·s; in data set [2] (298.15 K), 11.82 ± 0.25 mPa·s; in data set [2] (303.15 K) it was 9.738 ± 0.2 mPa·s. Moreover, the mass density in data set [2] (293.15 K) is given as 829.97 ± 0.24 kg/m3; in data set [2] (298.15 K), 826.58 ± 0.24 kg/m3; in data set [2] (303.15 K), 823.13 ± 0.24 kg/m3.
For `CCCCCCCO` [heptan-1-ol], the refractive index in data set [1] (293.15 K) is on record as 1.42429 ± 0.00037; in data set [1] (298.15 K), 1.42227 ± 0.00037; in data set [1] (303.15 K), 1.42023 ± 0.00037. Also, the viscosity in data set [2] (293.15 K) worked out at 7.106 ± 0.15 mPa·s; in data set [2] (298.15 K) it was 5.966 ± 0.13 mPa·s; in data set [2] (303.15 K) it was 4.841 ± 0.1 mPa·s. Besides, the mass density in data set [2] (293.15 K) is 822.52 ± 0.24 kg/m3; in data set [2] (298.15 K), 818.99 ± 0.24 kg/m3; in data set [2] (303.15 K) it was 815.4 ± 0.24 kg/m3.

As usually defined, the refractive index is the speed of light in vacuum divided by its phase velocity in the sample. One may read the viscosity as the resistance of a fluid to flow. A word on the mass density: it is mass per unit of volume.
